Like-named read-outs stand apart in the source and are kept apart here.

In EP3693362B1, “PARASITIC PLANT GERMINATION REGULATOR” (National University Corporation Tokai National Higher …, priority 2017, dated 2019) one finds IC50 data, which are given here for 4 compounds.

Common to all, as to assay: Affinity for strigolactone receptor, YLG probe competition (fluorescence)
Assay type in all cases: binding

The target in one experiment is T1, AtD14 (Arabidopsis thaliana, UniProt Q9SQR3).
T1 construct: made in house; host or cells: E. coli
T1 sequence (Q9SQR3 1-267): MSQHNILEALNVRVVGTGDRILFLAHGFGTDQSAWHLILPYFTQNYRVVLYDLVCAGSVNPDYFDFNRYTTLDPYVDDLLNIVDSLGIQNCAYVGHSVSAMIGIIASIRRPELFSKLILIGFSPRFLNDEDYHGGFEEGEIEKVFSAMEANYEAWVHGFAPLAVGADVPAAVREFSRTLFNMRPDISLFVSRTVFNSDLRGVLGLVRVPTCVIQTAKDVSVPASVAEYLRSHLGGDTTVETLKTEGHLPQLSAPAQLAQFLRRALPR
The text has this:
PTL 1 reports that the affinity of a test compound for the strigolactone receptor can be evaluated by reacting strigolactone with a probe for evaluation of affinity for a strigolactone receptor (e.g., YLG) in the presence of the test compound, and measuring the fluorescence emitted from the decomposition product of YLG. […] The details are as follows.
(§1) An Arabidopsis thaliana strigolactone receptor (AtD14) was produced in accordance with a usual method. More specifically, cDNA of the receptor was obtained by RT-PCR, and expression and purification were carried out in E. coli. Additionally, Striga strigolactone receptors were produced by the method disclosed in PTL 1 (ShHTL1: amino acid SEQ ID NO: 1, ShHTL2: amino acid SEQ ID NO: 2, ShHTL3: amino acid SEQ ID NO: 3, ShHTL4: amino acid SEQ ID NO: 4, ShHTL5: amino acid SEQ ID NO: 5, ShHTLS: amino acid SEQ ID NO: 6, ShHTL7: amino acid SEQ ID NO: 7, ShHTLS: amino acid SEQ ID NO: 8, ShHTL9: amino acid SEQ ID NO: 9, ShHTL10: amino acid SEQ ID NO: 10, and ShHTL11: amino acid SEQ ID NO: 11.)
(§2) One hundred microliters of a reaction solution containing each of the obtained strigolactone receptors ([…]), YLG (final concentration: […]), and each of the test compounds (final concentration: 0.01 to 10 µM) or the control compound (5-deoxystrigol, final concentration: 0.01 to 10 µM) as a competitive compound (100 mM HEPES, 150 mM NaCl, pH: 7.0, 0.1% DMSO) was prepared and reacted in a 96 black-well plate (Greiner). Sixty after the initiation of the reaction, fluorescence was detected at an excitation wavelength of 480 nm and a detection wavelength of 520 nm using a fluorescence detector (SpectraMax i3, manufactured by Molecular Devices), and the fluorescence intensity was measured.

A further experiment addresses T2, HTL5 (Striga hermonthica, UniProt A0A0M5I297).
T2 sequence (A0A0M5I297 1-271): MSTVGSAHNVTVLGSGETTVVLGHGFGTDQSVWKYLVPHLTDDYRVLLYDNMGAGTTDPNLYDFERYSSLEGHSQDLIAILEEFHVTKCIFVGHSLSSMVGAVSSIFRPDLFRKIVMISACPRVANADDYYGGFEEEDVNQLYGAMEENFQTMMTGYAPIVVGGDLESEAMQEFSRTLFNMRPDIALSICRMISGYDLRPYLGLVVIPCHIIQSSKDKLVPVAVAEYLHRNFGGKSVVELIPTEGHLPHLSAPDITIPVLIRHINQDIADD
The settings on record: competition with YLG, test range 0.01 to 10 µM, pH 7.0, read-out: IC50 values of test compounds. As for the experimental part: (§3) PTL 1 reports that the affinity of a test compound for the strigolactone receptor can be evaluated by reacting strigolactone with a probe for evaluation of affinity for a strigolactone receptor (e.g., YLG) in the presence of the test compound, and measuring the fluorescence emitted from the decomposition product of YLG. Therefore, the compounds synthesized in Example 1 were used as the test compounds, and the affinity for the strigolactone receptor was evaluated by a similar method to the above. The details are as follows.
as §1
as §2, with “measured. Based on the measurement results of fluorescence intensity, a Lineweaver-Burk plot was created to calculate the Km values, and the IC50 values of each of the test compounds and the control compound, which are competitive compounds.” for “measured.”
(§4) In Table 7, HTL1 to HTL11 refer to strigolactone receptors (SEQ ID NOs: 1 to 11), and AtD14 refer to the Arabidopsis thaliana strigolactone receptor.

In the next experiment the target is T3, HTL8 (Striga hermonthica, UniProt A0A0M4APJ4).
T3 sequence (A0A0M4APJ4 1-272): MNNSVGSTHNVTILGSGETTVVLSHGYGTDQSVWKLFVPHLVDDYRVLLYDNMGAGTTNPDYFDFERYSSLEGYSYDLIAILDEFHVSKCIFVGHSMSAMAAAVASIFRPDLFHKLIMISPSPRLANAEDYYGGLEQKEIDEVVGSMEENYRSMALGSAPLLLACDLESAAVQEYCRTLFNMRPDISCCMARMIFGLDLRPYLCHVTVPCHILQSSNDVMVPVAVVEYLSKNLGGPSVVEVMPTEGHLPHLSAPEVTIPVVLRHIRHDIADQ
The settings on record: competition with YLG, test range 0.01 to 10 µM, pH 7.0, read-out: IC50 values of test compounds. The protocol: as §3, §1
as §2, with “measured. Based on the measurement results of fluorescence intensity, a Lineweaver-Burk plot was created to calculate the Km values, and the IC50 values of each of the test compounds and the control compound, which are competitive compounds.” for “measured.”
as §4

The target in a further experiment is T4, HTL11 (Striga hermonthica, UniProt A0A0M4AS18).
T4 sequence (A0A0M4AS18 1-268): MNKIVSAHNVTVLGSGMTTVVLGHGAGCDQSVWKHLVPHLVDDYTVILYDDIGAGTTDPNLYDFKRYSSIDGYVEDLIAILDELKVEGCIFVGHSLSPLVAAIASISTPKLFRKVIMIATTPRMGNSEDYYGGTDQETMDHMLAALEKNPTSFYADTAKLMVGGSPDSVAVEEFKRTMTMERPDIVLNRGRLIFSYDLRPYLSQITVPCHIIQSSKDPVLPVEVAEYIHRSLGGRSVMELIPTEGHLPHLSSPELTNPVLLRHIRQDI
The conditions noted are these: competition with YLG, test range 0.01 to 10 µM, pH 7.0, read-out: IC50 values of test compounds. As for the experimental part: as §3, §1
as §2, with “measured. Based on the measurement results of fluorescence intensity, a Lineweaver-Burk plot was created to calculate the Km values, and the IC50 values of each of the test compounds and the control compound, which are competitive compounds.” for “measured.”
as §4

For a further experiment, the target named is T5, HTL3 (Striga hermonthica, UniProt A0A0M3PN85).
T5 sequence (A0A0M3PN85 1-276): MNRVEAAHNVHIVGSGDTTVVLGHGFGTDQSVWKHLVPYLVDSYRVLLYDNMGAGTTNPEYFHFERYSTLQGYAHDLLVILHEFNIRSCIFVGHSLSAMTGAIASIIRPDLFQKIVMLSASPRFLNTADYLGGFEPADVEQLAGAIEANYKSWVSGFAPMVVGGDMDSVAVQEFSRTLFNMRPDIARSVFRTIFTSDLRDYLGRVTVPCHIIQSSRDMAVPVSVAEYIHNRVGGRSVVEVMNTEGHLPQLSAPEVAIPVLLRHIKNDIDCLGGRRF
The conditions noted are these: competition with YLG, test range 0.01 to 10 µM, pH 7.0, read-out: IC50 values of test compounds. The protocol:
as §3, §1
as §2, with “measured. Based on the measurement results of fluorescence intensity, a Lineweaver-Burk plot was created to calculate the Km values, and the IC50 values of each of the test compounds and the control compound, which are competitive compounds.” for “measured.”
as §4

The mark [1] stands for this setting: AtD14, competition with YLG, test range 0.01 to 10 µM, pH 7.0, read-out: IC50 values of test compounds.

As usually defined, the IC50 is the midpoint of a concentration-inhibition curve. For the compound `CC1=CC(OC=C2C(=O)OC3C4=C(CCCC4(C)C)CC23)OC1=O` (stereo not shown) [5-Ddeoxystriqol, 5-deoxystrigol, reference compound], the IC50 at AtD14 (setting [1]) came out at 0.44 µM; at HTL5 it was 3.6 µM; at HTL8, 360 nM; at HTL11, 1600 nM; on HTL3, 9.3 µM.
With `CC1=CC(OC(=O)NCc2ccccc2)OC1=O` (stereo not shown) [Comparison Compound 1, reference compound], the IC50 on HTL5 is more than 10 µM; on HTL8, more than 10000 nM; at HTL11, 660 nM; on HTL3, more than 10 µM.
With `CCCCOc1ccc(S(=O)(=O)N2CCN(C(=O)OC3C=C(C)C(=O)O3)CC2)cc1` (stereo not shown) [Compound 1], the IC50 on AtD14 was more than 10 µM; on HTL5, more than 10 µM; on HTL8 it was 1100 nM; at HTL11 it was 1800 nM; at HTL3 it was more than 10 µM.
Take `CCCCOc1ccc(S(=O)(=O)N2CCN(C(=O)OC3C=CC(=O)O3)CC2)cc1` (stereo not shown) [Compound 13]: the IC50 at AtD14 (setting [1]) was more than 10 µM; on HTL5 it was more than 10 µM; at HTL8, more than 10000 nM; at HTL11, more than 10000 nM; on HTL3 it was 2 µM.
